Source: US10426772B2, “Use of ergot alkaloids as an anthelmintic agent” (priority 2016, dated 2019)
Entries after “also recorded” stand apart in the source; their conditions may differ. Where two headings read alike, the source gives them in different places.

Tests used:
[1] = molecular target: Sm.5HTR (Schistosoma mansoni, UniProt G4V5G4); type: cell-based; settings: for activity at Sm.5HTR, in words: antagonist screen, FIG. 7; for potency (IC50) at Sm.5HTR, lower right quadrant of FIG. 13: inhibition of cAMP generation
Method: (§1) HEK293 cells (ATCC CRL-1573.3) were cultured in DMEM supplemented with 10% fetal bovine serum (FBS), penicillin (100 units/mL), streptomycin (100 μg/mL), and L-glutamine (290 μg/mL). Cells were transiently transfected (ViaFect, Promega) as per the manufacturer's protocol at a density of 2×10^6 cells per T-25 cell-culture flask. Cells were transfected with plasmids encoding GloSensor (Promega) and either Sm.5HTR, (Smp_126730, GenBank accession number KF444051.1) or Sm.5HTRL (KX150867), both GPCRs being codon optimized for mammalian expression, or Hs.5HT7a (GenBank accession number NM_000872.4, R&D Systems) subcloned into pCS2(−). Cell culture reagents were from Invitrogen. Epitope tagged constructs were used to verify expression, and untagged constructs used for all luminescence assays.
(§2) For assays performed on adherent cells, HEK-293 cells were transferred one day post transfection to 96 well, solid white plates (Corning, cat #3917) coated with 0.01% poly-L-lysine (Sigma Aldrich) at a density of 5×10^4 cells/well in DMEM supplemented with 1% dialyzed FBS (Gibco). After overnight culture (37° C./5% CO2), media was decanted and replaced with 100 μL/well HBSS supplemented with 0.1% BSA, 20 mM HEPES (pH 7.4) and GloSensor™ reagent. Plates were allowed to equilibrate at room temperature for two hours prior to performing luminescence assays (GloMax-Multi Detection System plate reader, Promega). Conditions for individual assays were described as per figure legends. The standard assay to detect changes in cAMP utilized the F22 sensor in media supplemented with IBMX (200 μM). Ligands were added at a concentration of 20× per well for experiments (i.e., 5 μl of drug solution added to 100 μL of cells). […] For the resazurin reduction assay for cellular viability, cells were incubated with resazurin (final concentration, 10 μM) and tested ligands with fluorescence measurements (560 nm excitation/590 nm emission) made at 1.5 hours intervals.
(§3) The protocol for screening is shown schematically in FIG. 5A. HEK293 cells transiently transfected with either the human 5HT7 receptor (Hs.5HT7R) or the schistosome receptor (Sm.5HTR) were exposed to test ligands in a 96-well plate format. […] Luminescence was then read at a fixed time point (t=60 minutes, FIG. 5A). Hits were assigned as compounds that evoked a ≥50% decrease in luminescence output at the fixed time sampling point (FIG. 5B).

[2] = molecular target: Sm.5HTRL (Schistosoma mansoni, UniProt A0A173FEI8); test: GloSensor cAMP assay, HEK293 cells transiently transfected with Sm.5HTRL; type: cell-based; settings: antagonists 10 μM; 5-HT EC80 dose 0.8 μM (FIG. 8)
Method: as §1, §2

[3] = tested on: adult schistosomes; test: Egg laying assay, adult schistosome pairs in vitro; type: cell-based, Schistosoma mansoni; settings: serotonin 100 μM, forskolin 100 μM, LSD 10 μM, nuciferine 10 μM, ergotamine 5 μM (FIG. 19F); eggs per worm pair/day over five days
Excerpt: Female Swiss Webster mice infected with S. mansoni cerceria (NMRI strain) were sacrificed 49 days post infection by CO2 euthanasia. Adult schistosomes were recovered by perfusion with a solution of 0.85% sodium chloride+0.75% sodium citrate and dissection of the mesenteric vasculature. Harvested schistosomes were washed in RPMI 1640 Medium with GlutaMAX+5% heat inactivated FBS (Gibco) and Penicillin-Streptomycin (final concentration 100 units/mL, ThermoFisher cat #15140122).
For egg laying assays, adult schistosomes were transferred to 24 well plates the day after harvesting from mice (5 worm pairs in 2 mL media per well). Eggs were counted under a stereomicroscope daily, after which worms were transferred to a new well with fresh drug containing media. Egg counts were recorded for five days, and data processed as the mean number of eggs laid per worm pair/day. Measurements of egg dimensions were quantified using the “analyze>measure” function in ImageJ to record the length and width of individual eggs.

[4] = molecular target: Sm.5HTR (Schistosoma mansoni, UniProt A0A173FEI8); test: cell-based
Method: HEK293 cells (ATCC CRL-1573.3) were cultured in growth media consisting of DMEM supplemented with GlutaMAX (Gibco cat #10566016)+10% heat inactivated fetal bovine serum and penicillin-streptomycin (100 units/mL, ThermoFisher). Stable cell lines for the pGloSensor-22F cAMP Plasmid (Promega) and schistosome 5HTRs in pcDNA3.1(−) were selected with hygromycin (200 μg/mL) and G418 (400 μg/mL). The correct identity of each stably expressed sequence was verified by isolating total RNA from each stable line (TRIzol Reagent, Ambion) and amplifying the sequence of interest with gene specific primers flanking the 5′ and 3′ regions of the cds (SuperScript® III One-Step RT-PCR System, Invitrogen). PCR products were ligated into a TA cloning vector (pGEM-T Easy, Promega) and sequenced.
HEK293 lines stably expressing both the 22F cAMP sensor and Sm.5HTR were cultured in growth media supplemented with 10% dialyzed FRS. For cAMP assays in 96 well format, cells cultured in T-75 flasks were trypsinized (TrypLE Express, Gibco) and plated in solid white 96 well plates (Costar cat #3917) the day prior to assay at a density of 2.5×10^4 cells/well. The following day media was removed and replaced with assay buffer consisting of HBSS buffered with HEPES (20 mM, pH 7.4)+BSA (0.1% w/v) and D-luciferin sodium salt (1 mg/mL, Gold Biotechnology). Plates were equilibrated at room temperature for 1 hour, at which point 3-Isobutyl-1-methylxanthine (IBMX 200 μM, Sigma Aldrich) was added. Plates were equilibrated a further 30 minutes prior to test compound addition. […] Readings performed in 384 well format were modified so that cells were assayed in suspension. Cells were grown to 70% confluence in T-75 flasks, trypsinized and pelleted (300 RCF×5 minutes). Media was removed and cells were resuspended in 25 mL assay buffer supplemented with IBMX (200 μM). A 96 channel semi-automated pipet (Eppendorf epMotion 96) delivered 55 μL of cell suspension per well (5000 cells/well) into solid white 384 plates (Corning 3574).

[5] = tested on: S. mansoni schistosomules; test: Schistosomule contractility assay; type: cell-based; settings: Schistosoma mansoni
Method: FIGS. 14A-14F. […] Effects of selected ligands on schistosomules. […] A contractile cycle is defined when a deviation of ≥20% of the average body length (dashed lines) occurs.
Biomphalaria glabrata (M-line) snails exposed to Schistosoma mansoni miracidia (Strain PR-1) were obtained from BEI Resources (Cat. number NR-21961) and cercaria were shed following exposure to light (1.5 hours). Cercaria were manually transformed into schistosomula by vortexing (3×45 seconds, each separated by 3 minutes on ice) and tails were removed by gradient centrifugation (24 mL Percoll, 4 mL 10×EMEM, 1.5 ml penicillin-streptomycin, 1 mL of 1M HEPES in 0.85% NaCl, 9.5 ml distilled water) at 500 g/15 minutes at 4° C. Supernatant containing tails was discarded, and schistosomules were resuspended in Basch media and incubated (37° C., 5% CO2) overnight before conducting mobility assays. For contractility experiments, somules were incubated in 5-HT free Basch media to resolve a basal contractility rate. […] Schistosomules were incubated in 24 well plates (about 200 schistosomules/0.5 mL media per well) for 30 minutes (37° C./5% CO2) prior to acquiring videos of schistosome movement (1 minute recordings/well) using a Nikon Coolpix 5700 camera affixed to a Nikon Eclipse TS100 microscope (10× objective). The WrmTrck plugin for ImageJ was used to quantify worm mobility (El-Shehabi et al., 2012). Briefly, the major axis of each schistosomule body length was extracted from the raw output of WrmTrck and an average length was determined for the duration of the recording. Contractions were quantified by determining the number of episodes during which the worm body length deviated from the average by over 20%. S. mansoni protocols were approved by the Iowa State University Institutional Biosafety Committee.

[6] = molecular target: T1, Hs.5HT7R (Homo sapiens, UniProt P34969); test: GloSensor cAMP assay, HEK293 cells transiently transfected with Hs.5HT7R; type: cell-based; settings: inhibition of cAMP generation
T1 construct: host or cells: HEK293 (ATCC CRL-1573.3), transient, pCS2(−), co-transfected with GloSensor
Method: as §1, §2, §3

Chain of Sm.5HTR (Schistosoma mansoni, UniProt A0A173FEI8) (A0A173FEI8 entry or part of it): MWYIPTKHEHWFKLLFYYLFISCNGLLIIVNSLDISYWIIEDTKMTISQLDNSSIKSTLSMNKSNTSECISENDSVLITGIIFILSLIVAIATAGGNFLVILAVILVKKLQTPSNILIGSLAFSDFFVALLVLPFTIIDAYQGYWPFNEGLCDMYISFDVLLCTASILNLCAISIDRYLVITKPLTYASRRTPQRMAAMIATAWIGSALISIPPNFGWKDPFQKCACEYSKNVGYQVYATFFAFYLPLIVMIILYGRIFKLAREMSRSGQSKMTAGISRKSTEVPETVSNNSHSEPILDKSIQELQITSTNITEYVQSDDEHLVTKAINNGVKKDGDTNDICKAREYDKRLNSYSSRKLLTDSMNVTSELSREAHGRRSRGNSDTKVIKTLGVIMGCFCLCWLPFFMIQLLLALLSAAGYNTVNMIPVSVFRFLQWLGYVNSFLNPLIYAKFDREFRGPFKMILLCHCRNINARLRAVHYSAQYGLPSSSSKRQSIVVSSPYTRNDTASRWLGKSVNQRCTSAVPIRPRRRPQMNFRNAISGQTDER
Chain of Sm.5HTR (Schistosoma mansoni, UniProt G4V5G4) (G4V5G4 entry or part of it): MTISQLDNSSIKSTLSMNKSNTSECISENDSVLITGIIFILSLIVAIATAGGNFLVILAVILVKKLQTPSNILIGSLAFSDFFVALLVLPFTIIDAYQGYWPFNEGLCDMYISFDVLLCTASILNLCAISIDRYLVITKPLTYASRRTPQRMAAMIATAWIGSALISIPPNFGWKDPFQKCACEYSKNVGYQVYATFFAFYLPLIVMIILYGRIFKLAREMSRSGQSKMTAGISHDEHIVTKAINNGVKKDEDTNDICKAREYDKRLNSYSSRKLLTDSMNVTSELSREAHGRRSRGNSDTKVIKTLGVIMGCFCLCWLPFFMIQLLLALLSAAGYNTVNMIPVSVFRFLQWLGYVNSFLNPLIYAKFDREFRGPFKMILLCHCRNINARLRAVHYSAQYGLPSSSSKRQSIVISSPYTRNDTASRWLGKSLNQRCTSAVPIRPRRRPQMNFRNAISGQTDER
T1 sequence (P34969 1-445 isoform P34969-2): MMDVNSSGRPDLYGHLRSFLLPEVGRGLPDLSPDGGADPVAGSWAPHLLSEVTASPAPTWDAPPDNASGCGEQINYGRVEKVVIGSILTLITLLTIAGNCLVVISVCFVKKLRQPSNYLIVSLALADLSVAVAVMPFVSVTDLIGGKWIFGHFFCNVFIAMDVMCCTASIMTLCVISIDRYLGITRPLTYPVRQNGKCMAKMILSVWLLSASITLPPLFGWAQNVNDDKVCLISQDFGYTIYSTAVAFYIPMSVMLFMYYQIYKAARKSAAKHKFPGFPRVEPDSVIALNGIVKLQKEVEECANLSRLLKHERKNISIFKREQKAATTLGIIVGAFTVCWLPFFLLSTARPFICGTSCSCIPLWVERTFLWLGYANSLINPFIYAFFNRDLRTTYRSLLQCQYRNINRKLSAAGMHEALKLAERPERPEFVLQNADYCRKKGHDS
Chain of Sm.5HTRL (A0A173FEI8 entry or part of it): as the sequence (A0A173FEI8 entry or part of it) above

CNCC[C@@H](Oc1ccccc1C)c1ccccc1 [atomoxetine]
selectivity Sm.5HTR versus Hs.5HT7R (IC50 (Hs.5HT7R)/IC50 (Sm.5HTR)), in words [1]: clear selectivity for Sm.5HTR; also recorded: preferential selectivity toward Sm.5HTR
inhibition of 5-HT evoked cAMP generation through Sm.5HTRL [2]: inhibited 5-HT evoked cAMP generation through Sm.5HTRL

COc1cc2c3c(c1OC)-c1ccccc1C[C@H]3N(C)CC2 [nuciferine]
decrease of egg laying [3]: no effect

COc1cc2c(cc1OC)-c1cc3ccc(OC)c(OC)c3c[n+]1CC2 [palmatine]
selectivity Sm.5HTR versus Hs.5HT7R (IC50 (Hs.5HT7R)/IC50 (Sm.5HTR)), in words ([1]; antagonism of 5-HT evoked cAMP, FIGS. 7, 12, 13): decreased potency and selectivity for Sm.5HTR

CCN1CCCC1CNC(=O)c1cc(S(=O)(=O)CC)c(N)cc1OC (centres unmarked) [amisulpiride]
activity at Sm.5HTR, in words [1]: modest effects on Sm.5HTR

CC1CCN(CC[C@H]2CCCN2S(=O)(=O)c2cccc(O)c2)CC1 [SB269970]
activity at Sm.5HTR, in words [1]: modest effects on Sm.5HTR
activity at Sm.5HTR, in words ([1]; listed as SB 269970): completely lacked activity at Sm.5HTR

CCN(CC)C(=O)[C@@H]1C=C2c3cccc4[nH]cc(c34)C[C@H]2N(C)C1 [LSD, lysergic acid diethylamide]
inhibition of 5-HT evoked cAMP generation at higher concentrations ([1]; >10 μM): almost complete inhibition
agonist efficacy at Sm.5HTR, in words ([1]; FIG. 10A): no efficacy
Kb ([1]; antagonism of 5-HT evoked cAMP accumulation, FIG. 10F, read-out: affinity constants (KB), Schild regression analysis): 629 nM
nature of antagonism: right-shift in the 5-HT dose-response relationship ([1]; increasing doses of ligand, FIGS. 10B-D): competitive antagonism
EC50 [4]: 250 ± 150 nM
Emax ([4]; HEK293, read-out: Sm.5HTR Emax): 40 ± 26%
decrease of egg laying [3]: no effect

CCN(CC)C(=O)N[C@H]1C[C@@H]2c3cccc4[nH]cc(c34)C[C@H]2N(C)C1 [terguride]
IC50 ([4]; 5-HT 500 nM, read-out: Sm.5HTR IC50 (antagonist)): 400 ± 50 nM
agonist activity at Sm.5HTR, in words ([4]; FIG. 18C): completely eliminates agonist activity

COc1ccc2cc1Oc1ccc(cc1)C[C@H]1c3cc(c(OC)cc3CCN1C)Oc1c(OC)c(OC)cc3c1[C@H](C2)N(C)CC3 [tetrandrine]
potency (IC50) at Sm.5HTR, lower right quadrant of FIG. 13 [1]: sub-μM potency
IC50 ([5]; read-out: IC50, inhibition of 5-HT evoked contractions): ≤ 1000 nM
potency (IC50) at Hs.5HT7R, lower right quadrant of FIG. 13 [6]: supra-μM potency

COc1cc2c(cc1OC)C1CC(=O)C(CC(C)C)CN1CC2 (centres unmarked) [tetrabenazine]
selectivity Sm.5HTR versus Hs.5HT7R (IC50 (Hs.5HT7R)/IC50 (Sm.5HTR)), in words [1]: selectivity for Sm.5HTR retained
potency (IC50) at Sm.5HTR, lower right quadrant of FIG. 13 [1]: sub-μM potency
inhibition at 100 µM ([5]; read-out: inhibition of 5-HT evoked contractility): ~50%
potency (IC50) at Hs.5HT7R, lower right quadrant of FIG. 13 [6]: supra-μM potency
